The results in this text go back to ChEMBL document CHEMBL1201862, “PubChem BioAssay data set” (2004).

Structures are written as SMILES.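 Exposure lasted 48 hours, with cells grown in 96-well plates and compounds tested at five concentrations. At the GI50, growth is halved.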 Activity calls are given as the source filed them. No stated cut-off is given here; in the data, active = GI50 up to about 1.1 µM and inactive = higher. Where only a bound is given, the exact number is not on record here.

Among the test systems are K562; RXF 393; OVCAR-3; NCI-H23; SK-MEL-28; A549; U-251; SK-OV-3; MOLT-4; UO-31; IGROV-1; KM12; HOP-62; HL-60; COLO 205; SF-268; OVCAR-4.
Common to all, as to assay: NCI-60 cell line screen, 48 h

For `C[N+](C)(C)CC1CCCCC1=O` (stereo not drawn), the GI50 in the test on K562 was 8.63 µM (inactive); with RXF 393 it was 18.4 µM (inactive); with OVCAR-3 it was 19.1 µM (inactive); with NCI-H23 it was 22.5 µM (inactive); with SK-MEL-28, 17.3 µM (inactive); in the test with A549 it was > 100 µM (inactive). The GI50 was > 100 µM (inactive) in the test with U-251; > 100 µM (inactive) with SK-OV-3; 12.4 µM (inactive) with MOLT-4; > 100 µM (inactive) with UO-31; > 100 µM (inactive) with IGROV-1; 58.2 µM (inactive) in the test with KM12. For the same compound, the GI50 was > 100 µM (inactive) in the test on HOP-62, 13.9 µM (inactive) with HL-60 and 22.6 µM (inactive) in the test with COLO 205.

Consider `C[N+]1(CCNP(=S)(NCC[N+]2(C)Cc3c(ccc4c3OCO4)C3C2c2cc4c(cc2C[C@@H]3O)OCO4)NCC[N+]2(C)Cc3c(ccc4c3OCO4)C3C2c2cc4c(cc2C[C@@H]3O)OCO4)Cc2c(ccc3c2OCO3)C2C1c1cc3c(cc1C[C@H]2O)OCO3` (stereo partly drawn), for which the GI50 in the test with K562, with RXF 393, in the test with OVCAR-3, in the test with NCI-H23, with SK-MEL-28 and with A549 was < 0.00191 µM (active) in each case. The GI50 with U-251, with SK-OV-3, with SF-268, in the test with UO-31, in the test with IGROV-1 and in the test with KM12 was < 0.00191 µM (active) throughout. Moreover, the GI50 with HOP-62, in the test on HL-60, in the test on OVCAR-4 and in the test on COLO 205 was < 0.00191 µM (active) each time.

As to `c1ccc(OC2=NC3=S(S2)SC(Oc2ccccc2)=N3)cc1`, the GI50 in the test on K562 is 16.5 µM (inactive); in the test on RXF 393 it was 6.01 µM (inactive); in the test on OVCAR-3, 14.5 µM (inactive); in the test with NCI-H23 it was 21.3 µM (inactive); with A549, 21.6 µM (inactive); with U-251, 11.2 µM (inactive). The GI50 is 28.2 µM (inactive) with SK-OV-3; 9.98 µM (inactive) in the test with MOLT-4; 21.7 µM (inactive) in the test on SF-268; 18.1 µM (inactive) in the test on UO-31; 20.8 µM (inactive) in the test with IGROV-1; 16.9 µM (inactive) in the test with KM12. The GI50 was 26.2 µM (inactive) with HOP-62, 16.8 µM (inactive) with HL-60 and 17.9 µM (inactive) in the test on COLO 205.

Turning to `CC(=O)Nc1ccc(C(=O)NN2C(=O)C(Cl)C2c2ccccc2)cc1` (stereo not drawn), the GI50 with K562, in the test on RXF 393, with OVCAR-3, with NCI-H23, in the test with SK-MEL-28 and with A549 was > 100 µM (inactive) each time. Also, the GI50 with U-251, in the test with SK-OV-3, in the test with MOLT-4, in the test on SF-268, in the test on UO-31 and in the test with IGROV-1 was > 100 µM (inactive) each time. The GI50 with HOP-62, in the test with HL-60, in the test with OVCAR-4 and with COLO 205 was > 100 µM (inactive) in each case.

Consider `CC(N)Cc1cccc(C(F)(F)F)c1` (stereo not drawn), for which the GI50 in the test on K562, with RXF 393, in the test with OVCAR-3, with NCI-H23, with SK-MEL-28 and in the test with A549 was > 100 µM (inactive) in each case. The GI50 in the test on U-251, in the test on SK-OV-3, with SF-268, in the test with UO-31, in the test with IGROV-1 and with KM12 was > 100 µM (inactive) in each case. Further, the GI50 in the test with HOP-62, in the test on HL-60, in the test on OVCAR-4 and with COLO 205 was > 100 µM (inactive) throughout.

On to `CN(C)CCNC(=O)c1cccc2c(Nc3ccc(S(N)(=O)=O)cc3)c3ccccc3nc12`, for which the GI50 in the test on K562 was 0.509 µM (active); with OVCAR-3, 1.69 µM (inactive); in the test with NCI-H23, 1.73 µM (inactive); in the test on SK-MEL-28, 1.57 µM (inactive); in the test on A549 it was 1.79 µM (inactive); in the test on U-251, 1.02 µM (active). The GI50 with SK-OV-3 is 0.376 µM (active); in the test on MOLT-4, 0.0632 µM (active); in the test on SF-268, 0.746 µM (active); in the test on UO-31, 1.87 µM (inactive); with IGROV-1, 2.18 µM (inactive); with KM12, 1.72 µM (inactive). Further, the GI50 with HOP-62 is 3.1 µM (inactive); in the test on HL-60 it was 0.228 µM (active); in the test on OVCAR-4, 1.7 µM (inactive); in the test with COLO 205 it was 0.391 µM (active).

As for `COc1ccc(C(=O)O/N=C2\CCCC\C2=C/c2ccccc2)cc1`, the GI50 with K562 is > 10 µM (inactive); with NCI-H23, 15.4 µM (inactive); with SK-MEL-28, > 100 µM (inactive); with A549 it was > 100 µM (inactive); in the test on U-251, 57.3 µM (inactive); in the test with SK-OV-3, > 100 µM (inactive). For the same compound, the GI50 in the test on MOLT-4 was > 100 µM (inactive); with SF-268 it was 67.1 µM (inactive); in the test on UO-31, > 100 µM (inactive); in the test on IGROV-1, > 100 µM (inactive); in the test on HOP-62 it was 45.3 µM (inactive); in the test with HL-60, > 100 µM (inactive). The GI50 was 27.6 µM (inactive) with OVCAR-4 and > 100 µM (inactive) in the test with COLO 205.

Consider `COc1ccc(CNc2nc3ccc(C(F)(F)F)cc3nc2-c2ccccc2)cc1OC`, for which the GI50 with RXF 393 was 8.89 µM (inactive); in the test on OVCAR-3 it was 60.8 µM (inactive); in the test on NCI-H23 it was 78.7 µM (inactive); with SK-MEL-28, > 100 µM (inactive); in the test with A549 it was 31.3 µM (inactive); in the test on U-251, > 100 µM (inactive). The GI50 is > 100 µM (inactive) with SK-OV-3; 6.71 µM (inactive) with MOLT-4; 63.2 µM (inactive) in the test with SF-268; 47.6 µM (inactive) in the test on UO-31; > 100 µM (inactive) with HOP-62; 6.98 µM (inactive) in the test on HL-60. Further, the GI50 in the test with COLO 205 is 6.41 µM (inactive).

Regarding `CC#COP(=O)(OCC)OCC`, the GI50 in the test on K562, in the test on OVCAR-3, in the test on NCI-H23, in the test on A549, in the test on U-251 and in the test on SK-OV-3 was > 100 µM (inactive) each time. The GI50 in the test with MOLT-4, in the test with SF-268, with UO-31, in the test with IGROV-1, in the test on KM12 and in the test with HOP-62 was > 100 µM (inactive) each time. Also, the GI50 in the test on HL-60 is 17.7 µM (inactive); with OVCAR-4, > 100 µM (inactive); in the test with COLO 205, > 100 µM (inactive).

Turning to `C[C@@]12[Se]c3ccccc3[C@]1(C)[Se]c1ccccc12`, the GI50 in the test with K562 was 4.17 µM (inactive); in the test on RXF 393, 2.75 µM (inactive); in the test with OVCAR-3, > 100 µM (inactive); with NCI-H23 it was > 100 µM (inactive); in the test on U-251, 54.6 µM (inactive); in the test on SF-268 it was > 100 µM (inactive). For the same compound, the GI50 in the test on KM12 was 6.95 µM (inactive); in the test on HL-60, 2.74 µM (inactive); with OVCAR-4 it was 68.2 µM (inactive); with COLO 205 it was 3.73 µM (inactive).

On to `CCCCCCCCCCCCCCCCCC(CCCCCCCCCCCCCCCCC)OP(=O)(O)O`, for which the GI50 with K562, in the test with RXF 393, in the test with OVCAR-3, with NCI-H23, in the test with SK-MEL-28 and with A549 was > 100 µM (inactive) throughout. Moreover, the GI50 in the test with U-251, with SK-OV-3, in the test on MOLT-4, in the test on SF-268, in the test on UO-31 and with IGROV-1 was > 100 µM (inactive) each time. The GI50 with KM12, in the test on HL-60, with OVCAR-4 and with COLO 205 was > 100 µM (inactive) in each case.

For the compound `CCCC(=O)Nc1ccc(O)c2c1C1CCCCCC21` (stereo not drawn), the GI50 with K562 is 64.9 µM (inactive); in the test on RXF 393, 39.1 µM (inactive); in the test with NCI-H23, > 100 µM (inactive); in the test on SK-MEL-28 it was > 100 µM (inactive); in the test on A549, > 100 µM (inactive); in the test on U-251, > 100 µM (inactive). Also, the GI50 is > 100 µM (inactive) in the test with SK-OV-3; 56.9 µM (inactive) in the test with MOLT-4; > 100 µM (inactive) in the test on SF-268; 63.2 µM (inactive) in the test on UO-31; 96.4 µM (inactive) in the test on KM12; > 100 µM (inactive) in the test with HOP-62. Besides, the GI50 in the test with HL-60 was > 100 µM (inactive); in the test on OVCAR-4, 68.5 µM (inactive); in the test on COLO 205, > 100 µM (inactive).

On to `CN1CCN(c2nc(N)c(Br)c(Cl)n2)CC1`, for which the GI50 with K562, in the test with RXF 393, with OVCAR-3, in the test on NCI-H23, in the test on SK-MEL-28 and with A549 was > 100 µM (inactive) each time. Besides, the GI50 in the test on SK-OV-3, with MOLT-4, in the test with SF-268, in the test on UO-31, in the test with IGROV-1 and with KM12 was > 100 µM (inactive) throughout. The GI50 in the test on HOP-62, in the test with HL-60, with OVCAR-4 and with COLO 205 was > 100 µM (inactive) in each case.
